In patent publication US10072304B2, “Nuclear localization of Src-family tyrosine kinases is required for growth factor-induced euchromatinization” (National University Corporation Chiba University, priority 2009, dated 2018):

Test system: nuclear SFKs
Assay: In vitro tyrosine phosphorylation of purified nuclei (kinase activity of nuclear SFKs)
Format: biochemical, monkey
Details: purified COS-1 nuclei, 10 μM PP2, FIGS. 30 and 31
Experimental: Nuclei were prepared as described previously. In brief, COS-1 and HeLa cells were swollen in hypotonic buffer (10 mM HEPES-KOH, pH 7.9, 1.5 mM MgCl2, 10 mM KCl, 0.5 mM DTT, and 1 mM Na3VO4) containing protease inhibitors (2 mM phenylmethylsulfonyl fluoride, 50 μg/mL aprotinin, 100 μM leupeptin, and 25 μM pepstatin A) at 4° C. for 20 min, followed by homogenization with 20 strokes in a tight-fitting 1-ml Dounce homogenizer. After cell suspension was centrifuged at 200×g for 5 min, cell pellets were resuspended in 0.25 M sucrose containing protease inhibitors, 10 mM MgCl2, and 1 mM Na3VO4. […]
Confocal and Nomarski differential-interference-contrast images were obtained using a Fluoview FV500 confocal laser scanning microscope with a 40×1.00 NA oil and a 100×1.35 NA oil immersion objective (Olympus, Tokyo) and an LSM 510 confocal laser scanning microscope with a 63×1.40 NA oil immersion objective (Zeiss), as described. […] Emission signals were detected between 505 and 525 nm for fluorescein, at more than 560 nm for rhodamine and more than 610 nm for PI [44]. […] Fluorescence intensity plots of anti-histone H3K4me3, anti-ATF-2 pT69/71 and anti-HP1α antibody and PI staining (see FIGS. 18B, 19B, and 20B, respectively) were generated using Fluoview version 4.3 software (Olympus, Tokyo). […]

CC(C)(C)n1nc(-c2ccc(Cl)cc2)c2c(N)ncnc21 [PP2]
ATP-induced increase in nuclear tyrosine phosphorylation in purified nuclei: significantly inhibited
